This note sets out measurements from patent US20030170731A1, “Diagnosis and treatment of non-ulcer dyspepsia based on hypothalamic-pituitary-adrenal axis abnormallity” (priority 2000, published 2003).

The test system of the test is CRH receptors. As to the kind of experiment: CRH/ACTH test: plasma ACTH after intravenous ovine CRH, immunoradiometric assay. It counts as in vivo, human. The settings on record: ovine CRH 100 μg intravenously. From the text: A total of ten patients with NUD were recruited from the Gastroenterology Clinic at St. James's Hospital, Dublin. Patients consisted of six men and four woman between the ages of twenty eight and forty five. They were matched for age and sex with ten healthy volunteers. To be included in the study patients had at least four of the following symptoms for at least three months: early satiety, upper abdominal pain, post prandial bloating, excessive flatulence, borborygmus, and nausea and/or vomiting. They all had normal results on physical examination. Endoscopic examination, twenty-four hour ambulatory pH monitoring, abdominal ultrasound were all negative. Five patients with H. pylori infestation were tested both before and after H. pylori eradication. The other five patients had no evidence of H. pylori infection. None of the patients had evidence of a formal psychiatric illness. Also none of the patients fulfilled the criteria for IBS.
Patients who were H. pylori positive were re-tested six months after commencing eradication therapy. In all cases endocrine tests were commenced at 1400 h. The test procedure was as follows. […]
Plasma ACTH was measured using a two site unextracted immunoradiometric assay with a commercially available kit supplied by the Nichols Institute (San Juan Capistrano, Calif.). […]

“ovine CRH: ovine variant of corticotropin releasing hormone, given intravenously as a challenge agent”: under “H. pylori positive NUD patients re-tested six months after commencing eradication therapy”, the “CRH/ACTH enhancement following H. pylori eradication therapy” value is listed as “persists”. Further, the “plasma ACTH response following CRH stimulation” value (NUD patients with and without H. pylori infection, relative to healthy volunteers, blood at 15-120 min) is “vastly enhanced”.
